The values below come from patent US10988523B2, “Modified lipidated Relaxin B chain peptides and their therapeutic use” (Sanofi, priority 2018, dated 2021).

Where two headings read alike, the source gives them in different places. Marks after values point to notes of the source that are not given here. *1 amine or outer side, *2 acyl side, *3 side chain or, on linkers, in order; H or OH if unused. Where a SMILES comes first, the peptide text is derived from it. Side-chain parts run from the residue outwards. [ ]: non-standard residue; d: D form. The star is where a group is joined. γGlu = O=C(O)[C@H](CCC(=O)[*:2])N[*:1]; Palmitoyl = CCCCCCCCCCCCCCCC(=O)*; αMeK = C[C@](N)(CCCCN)C(=O)O; Nle = CCCC[C@H](N)C(=O)O; AEEA = NCCOCCOCC(=O)O; Aib = CC(C)(N)C(=O)O

One data set concerns the target T1, RXFP1 (Homo sapiens, UniProt Q9HBX9).
T1 construct: OVCAR5 cells expressing endogenous RXFP1; endogenous in cells; host or cells: OVCAR5 cells
T1 sequence (Q9HBX9 1-757): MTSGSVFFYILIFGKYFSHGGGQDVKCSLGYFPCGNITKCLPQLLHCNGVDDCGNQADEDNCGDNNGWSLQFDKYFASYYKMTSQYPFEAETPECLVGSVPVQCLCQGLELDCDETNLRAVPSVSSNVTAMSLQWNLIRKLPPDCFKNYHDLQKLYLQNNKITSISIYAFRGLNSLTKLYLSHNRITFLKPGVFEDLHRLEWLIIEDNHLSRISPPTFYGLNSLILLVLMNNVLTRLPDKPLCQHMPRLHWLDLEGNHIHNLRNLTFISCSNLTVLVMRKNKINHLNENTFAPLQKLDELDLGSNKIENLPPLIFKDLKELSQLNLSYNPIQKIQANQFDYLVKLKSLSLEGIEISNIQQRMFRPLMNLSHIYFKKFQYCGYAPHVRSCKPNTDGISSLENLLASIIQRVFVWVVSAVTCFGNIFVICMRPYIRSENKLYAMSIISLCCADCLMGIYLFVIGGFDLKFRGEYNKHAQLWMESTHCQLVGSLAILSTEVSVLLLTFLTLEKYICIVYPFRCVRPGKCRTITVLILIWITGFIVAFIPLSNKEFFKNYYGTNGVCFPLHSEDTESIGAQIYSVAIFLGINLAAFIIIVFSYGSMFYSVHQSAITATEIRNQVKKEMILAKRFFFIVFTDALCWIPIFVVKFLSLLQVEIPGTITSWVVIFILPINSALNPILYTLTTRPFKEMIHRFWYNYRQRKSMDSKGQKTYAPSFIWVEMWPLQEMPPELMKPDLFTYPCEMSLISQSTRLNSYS
Description: OVCAR5 cAMP assay (HTRF), RXFP1 agonist activity. The note with it: for Emax: OVCAR-5; for EC50: OVCAR5 cells expressing endogenous RXFP1, cAMP readout, 30 min, 1 mM IBMX, read-out: EC50 cAMP assay in OVCAR 5 cells. Format: cell-based. In outline: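 cAMP accumulation readout: after 1 mM IBMX for 40 min, endogenous-RXFP1 OVCAR5 cells got rising peptide concentrations without FCS, 30 min, 37° C, then lysis with HTRF cAMP reagents. Nonlinear regression gave EC50; Emax expressed relative to H2-relaxin maximum, same occasion.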
In general terms: cAMP levels reflect the balance of adenylyl cyclase and phosphodiesterase activity.

The nature of data set [1]: Stability testing of peptides in human plasma or blood. Format: in vitro ADME. The note with it: 37° C.; for Human Plasma stability % remaining T = 0: human plasma or blood, T = 0 (reference); for remaining at 1 h, 5 µM / remaining at 4 h, 5 µM: human plasma; for remaining at 1 h, 5 µM: read-out: Human Plasma stability % remaining 1 h; for remaining at 4 h, 5 µM: read-out: Human Plasma stability % remaining 4 h. Here is the method: (§1) Prior to the testing of stability in plasma (or blood) of a peptide batch, its purity (HPLC-UV) was determined.
(§2) Rat and Human plasma: anti-coagulant sodium or lithium heparin.
(§3) Rat and Human blood: anti-coagulant sodium or lithium heparin. • Stock solution: • 100 μM solution of study compound in 50 mM Phosphate buffer pH 7.4. • 950 μL plasma (or blood) was pre-incubated for 5 min at 37° C. 50 μL of compound stock solution was added. Final compound concentration=5 μM. Vortex and transfer 1504, plasma (or blood) into an Eppendorf for each time point. The time points […] were carried out in duplicate for each species.
(§4) After incubation 150 μL, plasma (or blood) was extracted with 600 μL, Acetonitrile containing with 1% TFA. Then, vortexed and centrifuged 10 min at 14600 rpm. 200 μL supernatant was dried under N2. The sample was reconstituted in 200 μL of H2O/CH3CN 98/2+0.1% FA+50 ng/ml Labetalol and analyzed using the analytical system used in solubility and stability studies.
(§5) For determination of the amount of the remaining peptide, the peak areas of the target compound at t0 and each time point […] were compared, resulting in “% remaining peptide”, following the equation: % remaining peptide=[(peak area peptide time)×100]/peak area peptide t0. The stability is expressed as “% remaining peptide”.

Data set [2] is described as follows: Stability testing of peptides in rat plasma or blood. The note with it: 37° C.; for Rat plasma stability % remaining T = 0: rat plasma or blood, T = 0 (reference); for remaining at 1 h, 5 µM / remaining at 4 h, 5 µM: rat plasma; for remaining at 1 h, 5 µM: read-out: Rat plasma stability % remaining 1 h; for remaining at 4 h, 5 µM: read-out: Rat plasma stability % remaining 4 h. Format: in vitro ADME. The procedure: as §1, §2, §3, §4, §5

Data set [3] can be described thus: Solubility testing of peptides in buffer. Format: physicochemical. Here is the method: Prior to the testing of solubility of a peptide batch, its purity (HPLC-UV) was determined.
Acetate Buffer 50 mM pH4.5: 0.75 g […], 3H2O (Sigma 57545)+0.35 ml CH3CO2H 100% solution dissolved in Millipore water, adjusted to pH with diluted (1:1) CH3CO2H and diluted to 250 ml with Millipore water.
In a 4 ml Ependorph vial, an accurately weighed sample of compound was diluted in study media to obtain target concentration of 2, 6 or 10 mg/ml of pure compound. The sample vials were shacked (rock 'roll shaker) for ˜19 h. 3004, Aliquots ( ) were filtered through a Millipore “Solvinert” plate (0.45 μm—PTFE hydrophilic).
pH was measured with a micro electrode
Waters Acquity UPLC System with DAD detector
Column: Waters Peptide Column CSH C18 (130 Å; 1.7 μm; 50*2.1 mm)
Column temperature: 60° C.
Full loop (about 5 μL)—overfill factor 5
Weak et Strong wash: H2O/ACN (75/25; V/V); Seal wash: H2O/IsOH (95/5; V/V). Mobile phase:
Solvent A: 0.05% TFA in H2O; Solvent B: 0.035% TFA in CH3CN
Gradient: from 0 to 12 min B=2% to 60%, from 12 to 14 min B=60% to 100%. Column washing 100% B 1 min, column equilibration 2% B 2.5 min.
UV detector: wavelength: 220 nm.

Data set [4] is described as follows: Pharmacokinetic (PK) determination after i.v. or s.c. administration to rats. Format: in vivo, Sprague Dawley rats. The conditions noted are these: Rat PK. A digest of the protocol:
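Non-compartmental analysis of plasma LC/MS data (protein precipitation, BLQ taken as zero) gave T½, C0 (i.v.), Cmax/Tmax (s.c.) and F% from dose-corrected AUCs. Dosing: 3 mg/kg s.c. or 1 mg/kg i.v. in PBS to Sprague Dawley rats, purity- and salt-corrected.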

The mark [5] stands for this setting: maximal cAMP relative to H2-relaxin maximal cAMP x 100, read-out: Emax cAMP assay in OVCAR 5 cells.
Setting [6] is: acetate buffer 50 mM pH 4.5, target solubility 2.0 mg/ml, read-out: Solubility Acetate buffer pH 4.5.
Where [7] appears, read: phosphate buffer 50 mM pH 7.4, target solubility 2.0 mg/ml, read-out: Solubility phosphate buffer pH 7.4.

In general, Emax refers to the greatest response seen or fitted, relative to the assay's reference. What is called Cmax is the maximum level reached in the sampled fluid or tissue. For the compound `CCCCCCCCCCCCCCCC(=O)N[C@@H](CCC(=O)N[C@@H](CCC(=O)N[C@@H](CCC(=O)N[C@@H](CCC(=O)NCCOCCOCC(=O)NCCOCCOCC(=O)NCCOCCOCC(=O)NCCOCCOCC(=O)NCCCC[C@H](NC(=O)[C@H](CCCCNC(C)=O)NC(=O)[C@H](C)NC(=O)[C@H](CCCNC(=N)N)NC(=O)[C@](C)(CCCCN)NC(=O)[C@H](CO)NC(=O)[C@H](Cc1ccccc1)NC(=O)[C@@H](NC(=O)[C@H](CO)NC(=O)[C@H](CCCC)NC(=O)CNC(=O)[C@H](CCC(=O)O)NC(=O)C(C)(C)NC(=O)C(C)(C)NC(=O)[C@@H](NC(=O)[C@H](CCCCNC(C)=O)NC(=O)[C@H](C)NC(=O)[C@H](CCCNC(=N)N)NC(=O)[C@@H](NC(=O)[C@H](CCCCN)NC(=O)[C@H](CCC(=O)O)NC(=O)[C@H](CCCNC(=N)N)NC(=O)CNC(=O)[C@H](CCC(=O)O)NC(=O)[C@H](CC(C)C)NC(C)=O)C(C)C)[C@@H](C)CC)[C@@H](C)O)C(N)=O)C(=O)O)C(=O)O)C(=O)O)C(=O)O` [compound 154] (Ac-LEGREKVRAK(Ac)I[Aib][Aib]EG[Nle]STFS[αMeK]RAK(Ac)K([AEEA-AEEA-AEEA-AEEA-γGlu-γGlu-γGlu-γGlu-Palmitoyl])-NH2), the Emax on RXFP1 (maximal cAMP relative to H2-relaxin maximum (100%), read-out: EMax, OVCAR 5 cells (cAMP)) stood at 92%. In addition, in data set [1] (human blood, 1 h, 5 μM), the “Human stability in blood % remaining 1 h” value is reported as 91** %. Besides, the “Human stability in blood % remaining 4 h” value in data set [1] (human blood, 4 h, 5 μM) is on record as 96** %. Also, the “Human Plasma stability % remaining T = 0” value in data set [1] (5 μM) is given as 100%. For the same compound, in data set [2] (rat blood, 1 h, 5 μM), the “Rat stability in blood % remaining 1 h” value is reported as 99** %. Further, in data set [2] (rat blood, 4 h, 5 μM), the “Rat stability in blood % remaining 4 h” value is given as 95** %. For the same compound, the “Rat plasma stability % remaining T = 0” value in data set [2] (5 μM) stood at 100%. In data set [3] (acetate buffer 50 mM pH 4.5, target solubility 10.0 mg/ml), the “Solubility Acetate buffer pH 4.5” value was above 10 mg/ml****. In data set [3] (phosphate buffer 50 mM pH 7.4, target solubility 10.0 mg/ml), the “Solubility phosphate buffer pH 7.4” value is above 10 mg/ml****. Further, the “T½” value in data set [4] (1 mg/kg i.v.) is given as 5.00 h. In data set [4] (1 mg/kg i.v., extrapolated plasma concentration at t=0, read-out: C0), the C0 is 4.52 µM. Further, in data set [4] (3 mg/kg s.c.), the Cmax stood at 1.89 µM and the “Tmax (-h)” value is 8.0 h. For the same compound, the F % in data set [4] (3 mg/kg s.c. vs 1 mg/kg i.v., dose-corrected AUC ratio) amounted to 72%.

For orientation: EC50 means the concentration at which the effect is half-maximal. What is called fraction remaining is what is left of the initial amount, in per cent. By solubility is commonly meant how much of the substance goes into solution per volume. With “Ac-VIKLSGRELVRAQIAISGMSTWSKKKK-NH2 [KKKK(AcB7-29 C11.23S), reference compound]”, the EC50 at RXFP1 came out at 206 nM. Further, at RXFP1 (setting [5]), the Emax is 84%. For the same compound, in data set [1] (5 μM), the “Human Plasma stability % remaining T = 0” value is 100%. The fraction remaining at 1 h, 5 µM in data set [1] (1 h) worked out at 41%; in data set [2] (1 h) it was 23%. Also, the amount remaining at 4 h, 5 µM in data set [1] (4 h) was 31%; in data set [2] (4 h) it was 14%. Further, the “Rat plasma stability % remaining T = 0” value in data set [2] (5 μM) was determined as 100%. Besides, the results for the solubility in data set [3] (setting [6]) and in data set [3] (setting [7]) were 2300 µg/mL and 177 µg/mL, respectively.

As for “Ac-VIKLSGRELVRAQIAISGMSTWSKRSL-NH2 [AcB7-33 C11.23S, reference compound]”, the Emax on RXFP1 (setting [5]) is 70%. Further, the “Human Plasma stability % remaining T = 0” value in data set [1] (5 μM) is 100%. In addition, the figures for the fraction remaining at 1 h, 5 µM in data set [1] (1 h) and in data set [2] (1 h) were 67% and 16%, respectively. For the same compound, the values for the share remaining at 4 h, 5 µM in data set [1] (4 h) and in data set [2] (4 h) were 18% and 2%, respectively. In addition, in data set [2] (5 μM), the “Rat plasma stability % remaining T = 0” value was 100%. The solubility in data set [3] (setting [6]) was 1540 µg/mL; in data set [3] (setting [7]), below 1 µg/mL.

On to “H-VIKLSGRELVRAQIAISGMSTWSKRSL-NH2 [B7-33 C11.23S, reference compound]”, for which, on RXFP1, the EC50 came to 1640 nM. Also, the Emax on RXFP1 (setting [5]) came to 90%. Besides, the “Human Plasma stability % remaining T = 0” value in data set [1] (5 μM) is 100%. The figures for the fraction remaining at 1 h, 5 µM in data set [1] (1 h) and in data set [2] (1 h) were 18% and 15%, respectively. In addition, the results for the fraction remaining at 4 h, 5 µM in data set [1] (4 h) and in data set [2] (4 h) were 3% and 2%, respectively. Further, the “Rat plasma stability % remaining T = 0” value in data set [2] (5 μM) is given as 100%. Further, in data set [3] (acetate buffer 50 mM pH 4.5, target solubility 2.0 mg/ml), the “Solubility Acetate buffer pH 4.5” value is listed as 1.9 mg/ml. Also, in data set [3] (phosphate buffer 50 mM pH 7.4, target solubility 2.0 mg/ml), the “Solubility phosphate buffer pH 7.4” value was 0.014 mg/ml.
